Measurements from paper PMC11980595, “Pyruvate kinase directly generates GTP in glycolysis, supporting growth and contributing to guanosine toxicity” (mBio, 2025).

Columns and labels:
Type in all cases: biochemical
L. monocytogenes PK = target: T1, L. monocytogenes PK (Listeria monocytogenes, UniProt Q8Y6W1); assay: pyruvate kinase activity assay, catalytic efficiency; conditions: co-substrate PEP; only kcat/Km, in figure
T1 construct: gene pykA; construct and purification not described
T1 sequence (Q8Y6W1 1-585): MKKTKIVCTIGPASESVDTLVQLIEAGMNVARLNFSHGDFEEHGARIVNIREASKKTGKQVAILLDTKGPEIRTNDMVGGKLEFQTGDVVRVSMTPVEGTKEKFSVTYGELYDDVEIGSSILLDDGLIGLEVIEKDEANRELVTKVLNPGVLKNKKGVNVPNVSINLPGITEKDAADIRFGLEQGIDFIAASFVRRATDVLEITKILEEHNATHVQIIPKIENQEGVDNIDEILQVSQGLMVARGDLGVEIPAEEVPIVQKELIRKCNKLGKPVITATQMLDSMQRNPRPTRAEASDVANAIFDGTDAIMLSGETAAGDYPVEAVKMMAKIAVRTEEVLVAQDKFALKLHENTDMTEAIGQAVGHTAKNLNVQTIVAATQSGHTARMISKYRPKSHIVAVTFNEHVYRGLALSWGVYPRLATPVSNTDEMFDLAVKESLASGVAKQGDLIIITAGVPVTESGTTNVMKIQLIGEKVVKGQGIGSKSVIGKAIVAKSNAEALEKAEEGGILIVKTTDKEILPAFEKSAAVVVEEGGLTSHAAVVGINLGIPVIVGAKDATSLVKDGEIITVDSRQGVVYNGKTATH

E. faecalis PK = target: T2, E. faecalis PK (Enterococcus faecalis, UniProt Q836R2); assay: as above; conditions: co-substrate PEP; only kcat/Km, in figure
T2 construct: gene pyk; construct and purification not described
T2 sequence (Q836R2 1-585): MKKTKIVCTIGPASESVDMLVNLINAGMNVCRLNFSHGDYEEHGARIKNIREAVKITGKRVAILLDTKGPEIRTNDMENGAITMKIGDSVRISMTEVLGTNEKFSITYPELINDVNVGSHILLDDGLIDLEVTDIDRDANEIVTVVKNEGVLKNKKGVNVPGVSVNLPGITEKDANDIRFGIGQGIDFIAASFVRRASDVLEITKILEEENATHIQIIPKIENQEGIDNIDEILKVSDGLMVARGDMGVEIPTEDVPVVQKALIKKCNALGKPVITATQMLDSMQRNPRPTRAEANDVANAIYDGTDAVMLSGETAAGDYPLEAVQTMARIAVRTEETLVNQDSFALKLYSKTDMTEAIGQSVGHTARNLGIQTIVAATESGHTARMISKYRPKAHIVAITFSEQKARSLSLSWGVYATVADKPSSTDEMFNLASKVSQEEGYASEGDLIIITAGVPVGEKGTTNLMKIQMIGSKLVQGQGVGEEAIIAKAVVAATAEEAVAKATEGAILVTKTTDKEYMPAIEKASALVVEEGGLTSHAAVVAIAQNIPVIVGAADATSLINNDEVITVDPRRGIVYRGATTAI

[1] = target: T3, B. subtilis pyruvate kinase (PK) (Bacillus subtilis, UniProt P80885); assay: activation of initial velocity, lactate dehydrogenase-coupled assay; conditions: activator at 1 mM; NDP varied, co-substrate PEP
T3 construct: gene pyk
T3 sequence (P80885 1-585): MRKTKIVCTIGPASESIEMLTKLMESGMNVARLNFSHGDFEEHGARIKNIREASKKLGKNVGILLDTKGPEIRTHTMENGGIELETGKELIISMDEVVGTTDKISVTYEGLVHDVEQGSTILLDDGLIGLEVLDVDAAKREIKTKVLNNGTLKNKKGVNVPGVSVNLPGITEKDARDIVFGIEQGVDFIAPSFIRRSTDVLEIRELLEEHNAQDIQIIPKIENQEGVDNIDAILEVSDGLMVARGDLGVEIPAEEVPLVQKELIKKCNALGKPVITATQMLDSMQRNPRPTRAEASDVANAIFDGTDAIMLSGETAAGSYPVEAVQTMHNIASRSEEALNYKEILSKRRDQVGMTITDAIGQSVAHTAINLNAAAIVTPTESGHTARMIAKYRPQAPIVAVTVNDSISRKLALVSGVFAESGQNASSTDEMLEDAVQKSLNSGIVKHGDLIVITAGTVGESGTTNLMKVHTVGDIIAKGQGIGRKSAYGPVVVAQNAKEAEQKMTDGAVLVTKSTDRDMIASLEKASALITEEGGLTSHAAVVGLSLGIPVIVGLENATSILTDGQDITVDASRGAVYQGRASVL

Nc1nc2c(ncn2[C@@H]2O[C@H](COP(=O)(O)OP(=O)(O)O)[C@@H](O)[C@H]2O)c(=O)[nH]1 [GDP]
pyruvate kinase activity assay, catalytic efficiency (L. monocytogenes PK): Enterococcus faecalis and Listeria monocytogenes also showed highest catalytic efficiencies on GDP
pyruvate kinase activity assay, catalytic efficiency (E. faecalis PK): Enterococcus faecalis and Listeria monocytogenes also showed highest catalytic efficiencies on GDP

Nc1ncnc2c1ncn2[C@@H]1O[C@H](COP(=O)(O)O)[C@@H](O)[C@H]1O [AMP]
activation of initial velocity, lactate dehydrogenase-coupled assay [1]: when AMP, a known activator of pyruvate kinase, was added, we observed a marked increase

Nc1ncnc2c1ncn2[C@@H]1O[C@H](COP(=O)(O)OP(=O)(O)O)[C@@H](O)[C@H]1O [ADP]
pyruvate kinase activity assay, catalytic efficiency (L. monocytogenes PK): L. monocytogenes PK can use ADP and UDP but less efficiently than GDP
pyruvate kinase activity assay, catalytic efficiency (E. faecalis PK): E. faecalis PK is also able to use ADP with high efficiency
